Experimental data: a compilation of properties of binary mixtures

Assay: xn = mol fraction of the nth substance listed

O=C([O-])C(F)(F)F.[Na+] + CCCCNC(N)=O
viscosity (302.2 K, 101.3 kPa, x2 = 0.6576): 324 mPa·s | viscosity (305.5 K, 101.3 kPa, x2 = 0.6576): 196 mPa·s | viscosity (310.4 K, 101.3 kPa, x2 = 0.6576): 96 mPa·s | viscosity (311.4 K, 101.3 kPa, x2 = 0.6576): 85 mPa·s | viscosity (314.3 K, 101.3 kPa, x2 = 0.6576): 54 mPa·s | viscosity (317.5 K, 101.3 kPa, x2 = 0.6576): 37 mPa·s | viscosity (322.4 K, 101.3 kPa, x2 = 0.6576): 21 mPa·s

O=C(O)CC(=O)O + CC[n+]1ccn(C)c1.[Cl-]
viscosity (313.15 K, 101.3 kPa, x2 = 0.667): 80.8 mPa·s | viscosity (323.15 K, 101.3 kPa, x2 = 0.667): 49.2 mPa·s | viscosity (333.15 K, 101.3 kPa, x2 = 0.667): 33.5 mPa·s | viscosity (343.15 K, 101.3 kPa, x2 = 0.667): 23.06 mPa·s | viscosity (353.15 K, 101.3 kPa, x2 = 0.667): 17.84 mPa·s

CC[N+](CC)(CC)CCCS(=O)(=O)O.F[B-](F)(F)F + O
electrical conductivity (298 K, 101 kPa, x1 = 0.0002): 0.475 S/m | electrical conductivity (298 K, 101 kPa, x1 = 0.0004): 0.658 S/m | electrical conductivity (298 K, 101 kPa, x1 = 0.001): 0.921 S/m | electrical conductivity (298 K, 101 kPa, x1 = 0.0016): 1.45 S/m | electrical conductivity (298 K, 101 kPa, x1 = 0.004): 2.04 S/m | electrical conductivity (298 K, 101 kPa, x1 = 0.006): 2.14 S/m | electrical conductivity (298 K, 101 kPa, x1 = 0.008): 2.28 S/m | electrical conductivity (298 K, 101 kPa, x1 = 0.01): 2.32 S/m

CC(O)C(=O)[O-].CN(C)CCOCC[NH+](C)C + O
viscosity (298.15 K, 100 kPa, x1 = 0.0172): 1.2 mPa·s | viscosity (298.15 K, 100 kPa, x1 = 0.0301): 1.28 mPa·s | viscosity (298.15 K, 100 kPa, x1 = 0.0456): 1.76 mPa·s | viscosity (298.15 K, 100 kPa, x1 = 0.0985): 6.58 mPa·s

CCCC[n+]1ccn(C)c1.O=S(=O)([N-]S(=O)(=O)C(F)(F)F)C(F)(F)F + CCCCn1cc[n+](C)c1.O=S(=O)([N-]S(=O)(=O)C(F)(F)F)c1ccc[cH-]1.[Fe+2].c1cc[cH-]c1
viscosity (298.15 K, 100 kPa, x1 = 1): 43.8 mPa·s

CCCCCCCCCC[n+]1ccn(C)c1.O=S(=O)([N-]S(=O)(=O)C(F)(F)F)C(F)(F)F + O
viscosity (293.15 K, 101 kPa, x2 = 0.204): 105 mPa·s | electrical conductivity (295.15 K, 101 kPa, x2 = 0.204): 0.15 S/m

O + CCCC[n+]1ccn(C)c1.F[B-](F)(F)F
electrical conductivity (288.15 K, 100 kPa, x1 = 1): 0.0217 S/m | electrical conductivity (318.15 K, 100 kPa, x1 = 1): 0.0402 S/m

CCOS(=O)(=O)[O-].CC[n+]1ccn(C)c1 + CN1CCCC1=O
viscosity (288.15 K, 100 kPa, x1 = 1): 155.5 mPa·s | viscosity (293.15 K, 100 kPa, x1 = 0.8821): 80.25 mPa·s | viscosity (298.15 K, 100 kPa, x1 = 0.596): 27.95 mPa·s | viscosity (318.15 K, 100 kPa, x1 = 0.3021): 5.615 mPa·s

CC[n+]1ccn(C)c1.O=S(=O)([O-])C(F)(F)F + O
electrical conductivity (296.75 K, 101 kPa, x2 = 0.304): 1.12 S/m | electrical conductivity (298.15 K, 101 kPa, x2 = 0.304): 1.23 S/m | electrical conductivity (298.35 K, 101 kPa, x2 = 0.304): 1.22 S/m | electrical conductivity (300.65 K, 101 kPa, x2 = 0.304): 1.32 S/m | electrical conductivity (301.05 K, 101 kPa, x2 = 0.304): 1.33 S/m | electrical conductivity (301.85 K, 101 kPa, x2 = 0.304): 1.37 S/m | electrical conductivity (302.75 K, 101 kPa, x2 = 0.304): 1.44 S/m

O=C(O)CC(O)(CC(=O)O)C(=O)O + C[N+](C)(C)Cc1ccccc1.[Cl-]
electrical conductivity (303.11 K, 101 kPa, x2 = 0.5): 0.0002 S/m | electrical conductivity (308.2 K, 101 kPa, x2 = 0.5): 0.0005 S/m | electrical conductivity (313.21 K, 101 kPa, x2 = 0.5): 0.0011 S/m | viscosity (317.97 K, 101 kPa, x2 = 0.5): 152000 mPa·s | electrical conductivity (318.06 K, 101 kPa, x2 = 0.5): 0.0019 S/m | viscosity (323.1 K, 101 kPa, x2 = 0.5): 89000 mPa·s | electrical conductivity (323.14 K, 101 kPa, x2 = 0.5): 0.0032 S/m | viscosity (332.88 K, 101 kPa, x2 = 0.5): 28100 mPa·s | electrical conductivity (333.12 K, 101 kPa, x2 = 0.5): 0.0095 S/m

CCn1cc[n+](C)c1.O=S(=O)([O-])C(F)(F)C(F)(F)C(F)(F)C(F)(F)F + O
viscosity (298.15 K, 101.3 kPa, x1 = 0.0001): 1.038 mPa·s | viscosity (298.15 K, 101.3 kPa, x1 = 0.0005): 1.111 mPa·s | viscosity (298.15 K, 101.3 kPa, x1 = 0.0011): 1.091 mPa·s | viscosity (298.15 K, 101.3 kPa, x1 = 0.0018): 1.164 mPa·s | viscosity (298.15 K, 101.3 kPa, x1 = 0.0049): 1.367 mPa·s | viscosity (298.15 K, 101.3 kPa, x1 = 0.0109): 1.96 mPa·s | viscosity (298.15 K, 101.3 kPa, x2 = 0.9783): 3.03 mPa·s

C[N+](C)(C)CCO.O=S(=O)([N-]S(=O)(=O)C(F)(F)F)C(F)(F)F + OCCOCCOCCOCCO
viscosity (298.15 K, 101 kPa, x2 = 0.5): 87 mPa·s

CCCCCC(=O)O + CCCC[N+](CCCC)(CCCC)CCCC.[Cl-]
viscosity (298 K, 100 kPa, x2 = 0.5): 320 mPa·s

CCCC[N+](CCCC)(CCCC)CCCC.[Cl-] + OCC(O)CO
viscosity (318.15 K, 100 kPa, x1 = 0.333): 57.8 mPa·s

[Cl-].c1ccc(C[P+](c2ccccc2)(c2ccccc2)c2ccccc2)cc1 + OCCO
viscosity (303.15 K, 100 kPa, x1 = 0.0833): 69.7 mPa·s | viscosity (313.15 K, 100 kPa, x1 = 0.0833): 50.2 mPa·s | viscosity (333.15 K, 100 kPa, x1 = 0.0833): 31 mPa·s | viscosity (353.15 K, 100 kPa, x1 = 0.0833): 21.35 mPa·s

CCCCCC[n+]1ccn(C)c1.F[P-](F)(F)(F)(F)F + O
viscosity (298 K, 101 kPa, x2 = 0.1334): 452 mPa·s

CCCCCCCC[n+]1ccn(C)c1.F[P-](F)(F)(F)(F)F + O
viscosity (298 K, 101 kPa, x2 = 0.113): 506 mPa·s

CCCC[N+]1(C)CCCC1.O=S(=O)([N-]S(=O)(=O)C(F)(F)F)C(F)(F)F + OCCOCCOCCOCCO
viscosity (298.15 K, 101 kPa, x2 = 0): 70.5 mPa·s

CCCC[P+](CCCC)(CCCC)CCCC.[Cl-] + CCC(=O)O
viscosity (298 K, 100 kPa, x1 = 0.5): 140 mPa·s

CC[N+]1(C)CCCC1.[Br-] + OCCCCCCO
speed of sound (293.15 K, 101.3 kPa, x1 = 0.333): 1915.5 m/s | speed of sound (298.15 K, 101.3 kPa, x1 = 0.333): 1903.4 m/s | speed of sound (303.15 K, 101.3 kPa, x1 = 0.333): 1891.8 m/s | speed of sound (308.15 K, 101.3 kPa, x1 = 0.333): 1879.3 m/s | speed of sound (313.15 K, 101.3 kPa, x1 = 0.333): 1869.1 m/s

CCCC[P+](CC)(CCCC)CCCC.[Br-] + OCCOCCO
viscosity (303.15 K, 101 kPa, x1 = 0.333): 77 mPa·s | viscosity (313.15 K, 101 kPa, x1 = 0.333): 48.93 mPa·s | viscosity (323.15 K, 101 kPa, x1 = 0.333): 32.91 mPa·s | viscosity (343.15 K, 101 kPa, x1 = 0.333): 16.88 mPa·s

CCCCCCCCn1cc[n+](C)c1C.F[P-](F)(F)(F)(F)F + CCCCCCCC[n+]1ccn(C)c1.F[P-](F)(F)(F)(F)F
viscosity (303.15 K, 100 kPa, x2 = 0.5): 440 mPa·s | viscosity (313.15 K, 100 kPa, x2 = 0.5): 241 mPa·s | viscosity (323.15 K, 100 kPa, x2 = 0.5): 144 mPa·s

CCCCCCCC[n+]1ccn(C)c1C.F[B-](F)(F)F + CCCCCCCC[n+]1ccn(C)c1.F[P-](F)(F)(F)(F)F
viscosity (303.15 K, 100 kPa, x2 = 0.5): 196 mPa·s | viscosity (313.15 K, 100 kPa, x2 = 0.5): 116 mPa·s | viscosity (323.15 K, 100 kPa, x2 = 0.5): 73.6 mPa·s | viscosity (333.15 K, 100 kPa, x2 = 0.5): 50.6 mPa·s | viscosity (343.15 K, 100 kPa, x2 = 0.5): 36.8 mPa·s | viscosity (353.15 K, 100 kPa, x2 = 0.5): 29.1 mPa·s

CC[n+]1ccn(C)c1.[Cl-] + OCC(O)CO
viscosity (298.15 K, 101 kPa, x1 = 0.667): 345 mPa·s | viscosity (303.15 K, 101 kPa, x1 = 0.667): 243 mPa·s | viscosity (323.15 K, 101 kPa, x1 = 0.667): 75.6 mPa·s | viscosity (333.15 K, 101 kPa, x1 = 0.667): 47.2 mPa·s

c1c[nH]cn1 + CC[n+]1ccn(C)c1.[Cl-]
viscosity (298.2 K, 100 kPa, x2 = 0.333): 47.5 mPa·s | viscosity (298.2 K, 100 kPa, x2 = 0.667): 198 mPa·s

CCCC[n+]1ccn(C)c1.F[P-](F)(F)(F)(F)F + CC(C)=O
electrical conductivity (296.15 K, 101 kPa, x2 = 0.3522): 0.84 S/m | electrical conductivity (296.15 K, 101 kPa, x2 = 0.8801): 3.91 S/m | electrical conductivity (296.15 K, 101 kPa, x2 = 0.9514): 2.99 S/m | electrical conductivity (296.15 K, 101 kPa, x2 = 0.9778): 1.73 S/m

CCCC[n+]1ccn(C)c1.[Br-] + O
viscosity (298.15 K, 100 kPa, x2 = 0.9487): 2.21 mPa·s

CCCCCCCCCC[n+]1ccn(C)c1.[Cl-] + O
electrical conductivity (298.15 K, 101.3 kPa, x1 = 0.0171): 3.25 S/m

CCCCCCCC[N+](C)(CCCCCCCC)CCCCCCCC.[Cl-] + CCC(=O)O
viscosity (298 K, 100 kPa, x1 = 0.5): 650 mPa·s

CCCC[n+]1ccn(C)c1.O=S(=O)([O-])C(F)(F)F + OCCOCCOCCOCCO
viscosity (298.15 K, 101 kPa, x2 = 0): 59.8 mPa·s

CCCCCC[n+]1ccn(C)c1.[Br-] + O
viscosity (298.15 K, 100 kPa, x2 = 0.9487): 2.88 mPa·s
